From article PMC5011342, “A high throughput drug screening assay to identify compounds that promote oligodendrocyte differentiation using acutely dissociated and purified oligodendrocyte precursor cells” (BMC Research Notes, 2016)
Like-named read-outs stand apart in the source and are kept apart here.

Key:
expanded OPCs = assay: cells; conditions: for viability at 0.1 µM / viability at 1 µM / viability at 10 µM: Rattus norvegicus, 72 h
In short: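 Toxicity screen: compounds added at 0.1, 1 and 10 µM to PDGF-AA-expanded OPCs in 96-well plates, 3-day incubation at 37 °C, 10% CO2, then alamarBlue 1:10 for 4 h with fluorescence readout. Results set screening doses of 10/2, 2/0.4 or 0.4/0.08 µM.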

[1] = tested on: acutely dissociated and purified rat OPCs; assay: Acute OL differentiation assay (MBP expression/cell, immunofluorescent image quantification); type: cell-based; conditions: for activation at 2 µM / activation at 10 µM / activation at 0.4 µM / activation at 0.08 µM: Rattus norvegicus
In short: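 This acute differentiation assay used purified rat OPCs from postnatal day 6–7 pups, seeded into PDL/laminin-coated 96-well plates in differentiation medium lacking PDGF and FGF. Compounds were applied in quadruplicate after a 1–2 h preincubation at 37 °C, 10 % CO2, with 0.1 % DMSO negative and 40 ng/ml T3 positive controls in eight wells. After fixation on DIV4, anti-MBP immunofluorescence images yielded MBP expression/cell.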

[2] = read-out: 0.1 µM (% DMSO), alamarBlue viability of expanded OPCs, compound at 0.1 µM, sheet All Tox data
[3] = read-out: 1 µM (% DMSO), alamarBlue viability of expanded OPCs, compound at 1 µM, sheet All Tox data
[4] = read-out: 10 µM (% DMSO), alamarBlue viability of expanded OPCs, compound at 10 µM, sheet All Tox data
[5] = 2 uM test compound, relative to quetiapine, sheet "All OLga data", read-out: OL differentiation, 2 uM (% Quet)
[6] = 10 uM test compound, relative to quetiapine, sheet "All OLga data", read-out: OL differentiation, 10 uM (% Quet)
[7] = read-out: 0.1 µM (% DMSO), alamarBlue viability, NCC library compound at 0.1 µM, sheet "All Tox data"
[8] = read-out: 1 µM (% DMSO), alamarBlue viability, NCC library compound at 1 µM, sheet "All Tox data"
[9] = read-out: 10 µM (% DMSO), alamarBlue viability, NCC library compound at 10 µM, sheet "All Tox data"
[10] = 0.4 uM test compound, relative to quetiapine, sheet "All OLga data", read-out: OL differentiation, 0.4 uM (% Quet)
[11] = alamarBlue viability of expanded OPCs, compound at 0.1 µM, relative to DMSO control
[12] = alamarBlue viability of expanded OPCs, compound at 1 µM, relative to DMSO control
[13] = alamarBlue viability of expanded OPCs, compound at 10 µM, relative to DMSO control
[14] = test compound at 2 uM, NCC library screen, sheet "All OLga data", relative to quetiapine, read-out: 2 uM (% Quet)
[15] = test compound at 10 uM, NCC library screen, sheet "All OLga data", relative to quetiapine, read-out: 10 uM (% Quet)

SMILES	viability at 0.1 µM (expanded OPCs; [2])	viability at 1 µM (expanded OPCs; [3])	viability at 10 µM (expanded OPCs; [4])	activation at 2 µM [1, 5]	activation at 10 µM [1, 6]	viability at 0.1 µM (expanded OPCs; [7])	viability at 1 µM (expanded OPCs; [8])	viability at 10 µM (expanded OPCs; [9])	activation at 2 µM [1, 14]	activation at 10 µM [1, 15]	other results
O=C1c2c(O)cc(O)cc2OC(c2ccc(O)c(O)c2)C1O (stereo not shown) [Distylin]											0.1 µM (% DMSO) (expanded OPCs; alamarBlue viability of expanded OPCs, compound at 0.1 µM, sheet All Tox data): 109.5 % DMSO; 1 µM (% DMSO) (expanded OPCs; alamarBlue viability of expanded OPCs, compound at 1 µM, sheet All Tox data): 92.1 % DMSO; 10 µM (% DMSO) (expanded OPCs; alamarBlue viability of expanded OPCs, compound at 10 µM, sheet All Tox data): 99.3 % DMSO; OL differentiation, 2 uM (% Quet) ([1]; 2 uM test compound, relative to quetiapine, sheet "All OLga data"): 7.2 % Quet; OL differentiation, 10 uM (% Quet) ([1]; 10 uM test compound, relative to quetiapine, sheet "All OLga data"): -26.1 % Quet
Cc1[nH]cnc1CN1CCc2c(c3ccccc3n2C)C1=O [Alosetron]	106%	91.2%	96.3%	-24%	-21.2%						
O=C(O)CCCc1ccc(N(CCCl)CCCl)cc1 [Chlorambucil]											viability at 0.1 µM (expanded OPCs; read-out: 0.1 µM (% DMSO)): 88%; viability at 1 µM (expanded OPCs; read-out: 1 µM (% DMSO)): 80.8%; viability at 10 µM (expanded OPCs; read-out: 10 µM (% DMSO)): 57.4%; activation at 2 µM ([1]; read-out: 2 uM (% Quet)): -18.6%; activation at 10 µM ([1]; read-out: 10 uM (% Quet)): -105%
CC(Cc1ccccc1)(NC(=O)CN)c1ccccc1 (stereo not shown) [Remacemide]				4.8%		113%	88.6%	44.7%			activation at 0.4 µM [1, 10]: 5.6%
CCCc1nc(C(C)(C)O)c(C(=O)O)n1Cc1ccc(-c2ccccc2-c2nnn[nH]2)cc1 [Olmesartan]	91.4%	87.4%	93.9%	-15.6%	-11.9%						
C#CCN(C)[C@H](C)Cc1ccccc1 [Selegiline]	85.8%	88.8%	91.2%	10.1%	19.7%				0.64%	11.2%	0.1 µM (% DMSO) (expanded OPCs; [11]): 101.6 % DMSO; 1 µM (% DMSO) (expanded OPCs; [12]): 93.8 % DMSO; 10 µM (% DMSO) (expanded OPCs; [13]): 94.0 % DMSO
CC(C)[C@H]1CC[C@H](C(=O)N[C@H](Cc2ccccc2)C(=O)O)CC1 [Nateglinide]	93.4%	92.4%	99.5%	-26.4%	-12.7%						
CC1COc2c(N3CCN(C)CC3)c(F)cc3c(=O)c(C(=O)O)cn1c23 (stereo not shown) [Ofloxacin]	95.3%	91.5%	99.5%	-4.3%	4.9%				3.8%	-3.8%	0.1 µM (% DMSO) (expanded OPCs; [11]): 93.4 % DMSO; 1 µM (% DMSO) (expanded OPCs; [12]): 91.6 % DMSO; 10 µM (% DMSO) (expanded OPCs; [13]): 89.4 % DMSO
C=C1/C(=C\C=C2/CCC[C@]3(C)[C@@H]([C@H](C)CCCC(C)(C)O)CC[C@@H]23)C[C@@H](O)C[C@@H]1O [Calcitriol]				30.3%		99.4%	108%	11%			activation at 0.4 µM [1, 10]: 8.9%
CN1CCN(c2c(F)cc3c(=O)c(C(=O)O)cn4c3c2SCC4)CC1 [Rufloxacin]	98.3%	89.1%	103%	-26.4%	7%						
O=C1c2c(O)cc(O)cc2OC(c2ccc(O)c(O)c2)C1O (stereo not shown) [Taxifolin]	96.4%	93.7%	88.7%	-1.7%	-59%						
O=c1[nH]cc(F)c(=O)[nH]1 [5-Fluorouracil]											0.1 µM (% DMSO) (expanded OPCs; [11]): 80.9 % DMSO; 1 µM (% DMSO) (expanded OPCs; [12]): 26.6 % DMSO; 10 µM (% DMSO) (expanded OPCs; [13]): 12.2 % DMSO; activation at 0.08 µM ([1]; test compound at 0.08 uM, NCC library screen, sheet "All OLga data", relative to quetiapine, read-out: 0.08 uM (% Quet)): -10.8%; activation at 0.4 µM ([1]; test compound at 0.4 uM, NCC library screen, sheet "All OLga data", relative to quetiapine, read-out: 0.4 uM (% Quet)): -21.3%
C[C@H]1C[C@H]2[C@@H]3CCC4=CC(=O)C=C[C@]4(C)[C@@]3(F)[C@@H](O)C[C@]2(C)[C@@]1(O)C(=O)CCl [Clobetasol]											0.1 µM (% DMSO) (expanded OPCs; alamarBlue viability, NCC library compound at 0.1 µM, sheet "All Tox data"): 124.1 % DMSO; 1 µM (% DMSO) (expanded OPCs; alamarBlue viability, NCC library compound at 1 µM, sheet "All Tox data"): 133.0 % DMSO; 10 µM (% DMSO) (expanded OPCs; alamarBlue viability, NCC library compound at 10 µM, sheet "All Tox data"): 121.5 % DMSO; 2 uM (% Quet) ([1]; test compound at 2 uM, NCC library screen, sheet "All OLga data", relative to quetiapine): -30.9 % Quet; 10 uM (% Quet) ([1]; test compound at 10 uM, NCC library screen, sheet "All OLga data", relative to quetiapine): -99.6 % Quet
CCN(CC)CCNC(=O)c1ccc(N)cc1 [Procainamide]						106%	111%	120%	0.4%	19.7%	
CC1=NS(=O)(=O)c2cc(Cl)ccc2N1 [Diazoxide]						98.9%	86.5%	82.6%	-1.9%	-7.1%	
CC(=O)O[C@H]1C[C@@H]2CC[C@@H]3[C@H](CC[C@@]4(C)[C@H]3C[C@H]([N+]3(C)CCCCC3)[C@@H]4OC(C)=O)[C@@]2(C)C[C@@H]1[N+]1(C)CCCCC1 [Pancuronium]	83.3%	83.2%	88%	14.7%	8.2%						
NC(Cc1cc(I)c(Oc2cc(I)c(O)c(I)c2)c(I)c1)C(=O)O (stereo not shown) [thyroxine, reference compound]									-26.7%	-186%	0.1 µM (% DMSO) (expanded OPCs; [11]): 212.0 % DMSO; 1 µM (% DMSO) (expanded OPCs; [12]): 190.0 % DMSO; 10 µM (% DMSO) (expanded OPCs; [13]): 120.0 % DMSO; promotion of OL differentiation (in words) ([1]; MBP expression versus 0.1 % DMSO negative control): able to promote OL differentiation at one or both concentrations tested
O=C1CC2(CCCC2)CC(=O)N1CCNCC1COc2ccccc2O1 (stereo not shown) [Binospirone]						96%	97.6%	97.4%	37.7%	14.1%	
COc1ccc(-c2cc(=O)c3c(OC)c(OC)c(OC)c(OC)c3o2)cc1OC [Nobiletin]	76.3%	28.1%	28.1%								activation at 0.08 µM ([1]; 0.08 uM test compound, relative to quetiapine, sheet "All OLga data", read-out: OL differentiation, 0.08 uM (% Quet)): 8.4%; activation at 0.4 µM [1, 10]: -28.4%
Cc1c(OCC(F)(F)F)ccnc1C[S+]([O-])c1nc2ccccc2[nH]1 (stereo not shown) [Lansoprazole]						94.2%	86.3%	99.9%	-3.1%	-72%	
c1ccc2c(CC3=NCCN3)cccc2c1 [Naphazoline]									-4.8%	-45.4%	0.1 µM (% DMSO) (expanded OPCs; [11]): 92.9 % DMSO; 1 µM (% DMSO) (expanded OPCs; [12]): 92.8 % DMSO; 10 µM (% DMSO) (expanded OPCs; [13]): 78.6 % DMSO
C[C@]12CCC(=O)C=C1CC[C@@H]1[C@@H]2CC[C@@]2(C)[C@H]1CC[C@]2(O)C(=O)CO [Cortodoxone]						92.3%	99.6%	96.1%	2.2%	5.5%	
O=S(=O)(O)CCS [Mesna]											0.1 µM (% DMSO) (expanded OPCs; [11]): 92.5 % DMSO; 1 µM (% DMSO) (expanded OPCs; [12]): 91.3 % DMSO; 10 µM (% DMSO) (expanded OPCs; [13]): 100.9 % DMSO; activation at 2 µM ([1]; test compound at 2 uM, MBP expression relative to quetiapine, NCC library screen, sheet "All OLga data", read-out: 2 uM (% Quet)): -46%; activation at 10 µM ([1]; test compound at 10 uM, MBP expression relative to quetiapine, NCC library screen, sheet "All OLga data", read-out: 10 uM (% Quet)): -38.6%
Oc1ccc(/C=C/c2cc(O)cc(O)c2)cc1 [Resveratrol]						83.2%	87.6%	76.7%	-34.1%	-128%	
CC(C)n1c(/C=C/C(O)CC(O)CC(=O)O)c(-c2ccc(F)cc2)c2ccccc21 (stereo not shown) [Fluvastatin]											0.1 µM (% DMSO) (expanded OPCs; [11]): 96.9 % DMSO; 1 µM (% DMSO) (expanded OPCs; [12]): 53.3 % DMSO; 10 µM (% DMSO) (expanded OPCs; [13]): 9.3 % DMSO; activation at 0.08 µM ([1]; test compound at 0.08 uM, MBP expression relative to quetiapine, NCC library screen, sheet "All OLga data", read-out: 0.08 uM (% Quet)): -66.1%; activation at 0.4 µM ([1]; test compound at 0.4 uM, MBP expression relative to quetiapine, NCC library screen, sheet "All OLga data", read-out: 0.4 uM (% Quet)): -73.4%
